By IC50 is commonly meant the concentration at which inhibition is half-maximal.

Chain of PI3K gamma (P48736 whole entry): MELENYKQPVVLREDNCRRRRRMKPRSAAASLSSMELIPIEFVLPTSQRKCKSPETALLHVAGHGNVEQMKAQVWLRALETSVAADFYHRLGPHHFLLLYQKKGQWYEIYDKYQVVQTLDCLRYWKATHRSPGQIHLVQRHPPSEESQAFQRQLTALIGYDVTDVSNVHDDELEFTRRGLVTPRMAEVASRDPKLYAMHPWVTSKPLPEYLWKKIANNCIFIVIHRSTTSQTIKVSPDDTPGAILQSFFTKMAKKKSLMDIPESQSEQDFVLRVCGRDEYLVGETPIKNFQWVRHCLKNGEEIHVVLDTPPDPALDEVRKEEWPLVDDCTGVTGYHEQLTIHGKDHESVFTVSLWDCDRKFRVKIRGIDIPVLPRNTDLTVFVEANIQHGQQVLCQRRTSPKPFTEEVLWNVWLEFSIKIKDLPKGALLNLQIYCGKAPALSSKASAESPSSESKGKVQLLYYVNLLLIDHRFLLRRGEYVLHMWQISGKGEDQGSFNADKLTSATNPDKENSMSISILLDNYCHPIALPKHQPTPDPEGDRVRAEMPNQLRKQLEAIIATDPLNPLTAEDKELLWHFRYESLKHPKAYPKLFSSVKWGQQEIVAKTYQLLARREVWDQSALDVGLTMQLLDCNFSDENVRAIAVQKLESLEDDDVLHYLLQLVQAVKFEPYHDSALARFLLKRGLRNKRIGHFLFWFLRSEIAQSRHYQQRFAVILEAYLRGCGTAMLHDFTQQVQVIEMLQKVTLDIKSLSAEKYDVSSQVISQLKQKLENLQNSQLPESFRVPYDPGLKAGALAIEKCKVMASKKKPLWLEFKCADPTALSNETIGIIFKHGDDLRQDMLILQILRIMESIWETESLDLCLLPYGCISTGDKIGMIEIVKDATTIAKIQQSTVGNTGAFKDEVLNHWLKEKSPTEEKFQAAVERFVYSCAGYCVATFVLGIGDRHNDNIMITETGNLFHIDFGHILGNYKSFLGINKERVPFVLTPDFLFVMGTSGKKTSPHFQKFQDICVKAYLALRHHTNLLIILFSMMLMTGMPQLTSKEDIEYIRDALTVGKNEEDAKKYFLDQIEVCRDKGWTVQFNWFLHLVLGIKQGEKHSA

The target of the assay is PI3K gamma (Homo sapiens (Human), UniProt P48736). Put plainly: Biochemical assay for PI3Kgamma (Adapta TR-FRET format). As to conditions: enzymatic assay. An excerpt:
For the enzymatic assays, the preparation of PI3K gene constructs, protein expression and purification for HTS are described in WO2012/004299. […] The TR-FRET Adapta™ Universal Kinase Assay Kit was purchased from Invitrogen Corporation (Carlsbad/CA, USA) (Cat. No. PV5099). The kit contains the following reagents: Adapta Eu-anti-ADP Antibody (Europium labeled anti-ADP antibody in HEPES buffered saline, Cat. No. PV5097), Alexa Fluor® 647-labeled ADP tracer (Alexa Fluor® 647-labeled ADP tracer in HEPES buffered saline, Cat. No. PV5098), proprietary TR-FRET dilution buffer pH 7.5 (Cat. No. PV3574). PIK3CD substrate Phosphatidylinositol was obtained from Invitrogen (vesicules consisting of 2 mM PI in 50 mM HEPES pH7.5; Cat. No. PV5371). PIK3CG substrate Phosphatidylinositol-4,5-bisphosphate (PIP(4,5)2 was obtained from Invitrogen (PIP2:PS large unilamellar vesicules consisting of 1 mM PI P2: 19 mM PS in 50 mM HEPES pH7.5, 3 mM MgCl2, 1 mM EGTA; Cat. No. PV5100). Time-Resolved Fluorescence Resonance Energy Transfer (TR-FRET) is a technology based on energy transfer between two adjacent dyes, from an excited electron in one dye (the donor) to an electron of an adjacent dye (the acceptor) through resonance, then released as a photon. This energy transfer is detected by an increase in the fluorescence emission of the acceptor, and a decrease in the fluorescence emission of the donor. TR-FRET assays for protein kinases use a long-lifetime lanthanide Terbium or Europium chelates as the donor species which overcome interference from compound autofluorescence or light scatter from precipitated compounds, by introducing a delay after excitation by a flashlamp excitation source. Results are often expressed as a ratio of the intensities of the acceptor and donor fluorophores. The ratiometric nature of such a value corrects for differences in assay volumes between wells, as well as corrects for quenching effects due to colored compounds. The Adapta™ assay can be divided into two phases: a kinase reaction phase and an ADP detection phase. In the kinase reaction phase, all kinase reaction components are added to the well and the reaction is allowed to incubate for a set period of time specific for each kinase. After the reaction, a detection solution of Eu-labeled anti-ADP antibody, Alexa Fluor® 647-labeled ADP tracer, and EDTA (to stop the kinase reaction) are added to the assay well. ADP formed by the kinase reaction will displace the Alexa Fluor® 647-labeled ADP tracer from the antibody, resulting in a decrease in TR-FRET signal. In the presence of an inhibitor, the amount of ADP formed by the kinase reaction is reduced, and the resulting intact antibody-tracer interaction maintains a high TR-FRET signal. In the Adapta™ assay, the donor (Europium-anti-ADP antibody) is excited at 340 nm and will transfer its energy to the acceptor (Alexa Fluor® 647-labeled ADP tracer). The emission from the Alexa Fluor® 647 can be monitored with a filter centered at 665 nm because it is located between the emission peaks of the donor, which is measured at 615/620 nm. 50 nL of compound dilutions were dispensed onto white 384-well small volume polystyrene plate as described in section 2.2. Then 5 μL of PI3Kgamma and PI3Kdelta and lipid substrate (PI or PIP2:PS) followed by 5 μL of ATP (final assay volume 10 μL) are incubated at RT. […] Reactions were stopped with 5 μL of a mixture of EDTA containing the Eu-labeled anti-ADP antibody and the Alexa Fluor® 647-labeled ADP tracer in TR-FRET dilution buffer (proprietary to IVG). Plates are read 15 to 60 mins later in a Synergy2 reader using an integration time of 0.4 seconds and a delay of 0.05 seconds. […] The control for the 0% inhibition was given by the solvent vehicle of the compounds (90% DMSO in H2O). Data are analyzed using Excel fit software or Graphpad Prism. EC50 values were derived by fitting a sigmoidal dose-response curve to a plot of assay readout over inhibitor concentration. […]
Background: Time-resolved FRET reads energy transfer from a long-lived donor to a nearby acceptor.
As for `Cc1nc(N)nc(N2CCC[C@H]2c2nc3cccc(-c4cccnc4)c3c(=O)n2-c2ccccc2)c1C#N` [Example 20, (S)-2-Amino-4-methyl-6-(2-(4-oxo-3-phenyl-5-(pyridin-3-yl)-3,4-dihydroquinazolin-2-yl)pyrrolidin-1-yl)pyrimidine-5-carbonitrile], the IC50 is 0.14 µM. In the case of `COc1ccc(-c2cccc3nc([C@@H]4CCCN4c4nc(N)nc(C)c4C#N)n(-c4ccccc4)c(=O)c23)cn1` [Example 21, (S)-2-Amino-4-(2-(5-(6-methoxypyridin-3-yl)-4-oxo-3-phenyl-3,4-dihydroquinazolin-2-yl)pyrrolidin-1-yl)-6-methylpyrimidine-5-carbonitrile], the IC50 came to 0.27 µM.

For the compound `COc1ncc(-c2cccc3nc([C@@H]4C[C@H](O)CN4c4nc(N)nc(C)c4C#N)n(-c4ccccc4)c(=O)c23)cn1` [Example 22, 2-Amino-4-((2S,4S)-4-hydroxy-2-(5-(2-methoxypyrimidin-5-yl)-4-oxo-3-phenyl-3,4-dihydroquinazolin-2-yl)pyrrolidin-1-yl)-6-methylpyrimidine-5-carbonitrile], the half-maximal inhibitory concentration (IC50) stood at 0.13 µM. The same measure for `Cc1nc(N)nc(N2C[C@@H](O)C[C@H]2c2nc3cccc(-c4cccnc4)c3c(=O)n2-c2ccccc2)c1C#N` [Example 24, 2-Amino-4-((2S,4S)-4-hydroxy-2-(4-oxo-3-phenyl-5-(pyridin-3-yl)-3,4-dihydroquinazolin-2-yl)pyrrolidin-1-yl)-6-methylpyrimidine-5-carbonitrile]: 0.081 µM. With `COc1cncc(-c2cccc3nc([C@@H]4C[C@H](O)CN4c4nc(N)nc(C)c4C#N)n(-c4ccccc4)c(=O)c23)c1` [Example 25, 2-Amino-4-((2S,4S)-4-hydroxy-2-(5-(5-methoxypyridin-3-yl)-4-oxo-3-phenyl-3,4-dihydroquinazolin-2-yl)pyrrolidin-1-yl)-6-methylpyrimidine-5-carbonitrile], the 50% inhibitory concentration (IC50) is 0.065 µM. Consider `Cc1nc(N)nc(N2C[C@@H](O)C[C@H]2c2nc3cccc(-c4cncnc4)c3c(=O)n2-c2ccccc2)c1C#N` [Example 26, 2-Amino-4-((2S,4S)-4-hydroxy-2-(4-oxo-3-phenyl-5-(pyrimidin-5-yl)-3,4-dihydroquinazolin-2-yl)pyrrolidin-1-yl)-6-methylpyrimidine-5-carbonitrile], for which the half-maximal inhibitory concentration (IC50) came to 0.41 µM.

On to `COc1ccc(-c2cccc3nc([C@@H]4C[C@H](O)CN4c4nc(N)nc(C)c4C#N)n(-c4ccccc4)c(=O)c23)cn1` [Example 27, 2-Amino-4-((2S,4S)-4-hydroxy-2-(5-(6-methoxypyridin-3-yl)-4-oxo-3-phenyl-3,4-dihydroquinazolin-2-yl)pyrrolidin-1-yl)-6-methylpyrimidine-5-carbonitrile], for which the IC50 stood at 0.058 µM. Consider `Cc1nc(N)nc(N2C[C@@H](O)C[C@H]2c2nc3cccc(-c4cnn(CCO)c4)c3c(=O)n2-c2ccccc2)c1C#N` [Example 28, 2-Amino-4-((2S,4S)-4-hydroxy-2-(5-(1-(2-hydroxyethyl)-1H-pyrazol-4-yl)-4-oxo-3-phenyl-3,4-dihydroquinazolin-2-yl)pyrrolidin-1-yl)-6-methylpyrimidine-5-carbonitrile], for which the IC50 was 0.021 µM. Consider `CCOc1ncc(-c2c(F)ccc3nc([C@@H]4C[C@H](O)CN4c4nc(N)nc(C)c4C#N)n(-c4ccccc4)c(=O)c23)cn1` [Example 29, 2-Amino-4-((2S,4S)-2-(5-(2-ethoxypyrimidin-5-yl)-6-fluoro-4-oxo-3-phenyl-3,4-dihydroquinazolin-2-yl)-4-hydroxypyrrolidin-1-yl)-6-methylpyrimidine-5-carbonitrile], for which the IC50 turned out to be 0.013 µM.

`Cc1nc(N)nc(N2C[C@@H](F)C[C@H]2c2nc3cccc(-c4cnn(C)c4)c3c(=O)n2-c2ccccc2)c1C#N` [Example 30, 2-Amino-4-((2S,4S)-4-fluoro-2-(5-(1-methyl-1H-pyrazol-4-yl)-4-oxo-3-phenyl-3,4-dihydroquinazolin-2-yl)pyrrolidin-1-yl)-6-methylpyrimidine-5-carbonitrile]: the IC50 was 0.024 µM. With `Cc1nc(N)nc(N2C[C@@H](O)C[C@H]2c2nc3ccc(F)c(-c4cn(C)cn4)c3c(=O)n2-c2ccccc2)c1C#N` [Example 31, 2-Amino-4-((2S,4S)-2-(6-fluoro-5-(1-methyl-1H-imidazol-4-yl)-4-oxo-3-phenyl-3,4-dihydroquinazolin-2-yl)-4-hydroxypyrrolidin-1-yl)-6-methylpyrimidine-5-carbonitrile] the figure was 0.11 µM.

As to `CCOc1ncc(-c2cccc3nc([C@@H]4CCCN4c4nc(N)nc(C)c4C#N)n(-c4ccccc4)c(=O)c23)cn1` [Example 32, (S)-2-Amino-4-(2-(5-(2-ethoxypyrimidin-5-yl)-4-oxo-3-phenyl-3,4-dihydroquinazolin-2-yl)pyrrolidin-1-yl)-6-methylpyrimidine-5-carbonitrile], the IC50 is 0.14 µM. With `N#Cc1c(N)ncnc1N1CCC[C@H]1c1nc2cccc(C#CCO)c2c(=O)n1-c1ccccc1` [Example 33, (S)-4-Amino-6-(2-(5-(3-hydroxyprop-1-yn-1-yl)-4-oxo-3-phenyl-3,4-dihydroquinazolin-2-yl)pyrrolidin-1-yl)pyrimidine-5-carbonitrile] the figure was 0.081 µM.

(Values after US9840498B2, “Substituted quinazolin-4-one derivatives” (NOVARTIS AG, priority 2013, dated 2017).)
